{
  "source": "patent US8648105B2",
  "about": "“Diarylthiohydantoin compounds” (The Regents of the University of California, priority 2006, dated 2014)",
  "key": {"AR": {"biological_target": "T1, AR (Homo sapiens, UniProt P10275)", "T1 sequence (P10275 1-920)": "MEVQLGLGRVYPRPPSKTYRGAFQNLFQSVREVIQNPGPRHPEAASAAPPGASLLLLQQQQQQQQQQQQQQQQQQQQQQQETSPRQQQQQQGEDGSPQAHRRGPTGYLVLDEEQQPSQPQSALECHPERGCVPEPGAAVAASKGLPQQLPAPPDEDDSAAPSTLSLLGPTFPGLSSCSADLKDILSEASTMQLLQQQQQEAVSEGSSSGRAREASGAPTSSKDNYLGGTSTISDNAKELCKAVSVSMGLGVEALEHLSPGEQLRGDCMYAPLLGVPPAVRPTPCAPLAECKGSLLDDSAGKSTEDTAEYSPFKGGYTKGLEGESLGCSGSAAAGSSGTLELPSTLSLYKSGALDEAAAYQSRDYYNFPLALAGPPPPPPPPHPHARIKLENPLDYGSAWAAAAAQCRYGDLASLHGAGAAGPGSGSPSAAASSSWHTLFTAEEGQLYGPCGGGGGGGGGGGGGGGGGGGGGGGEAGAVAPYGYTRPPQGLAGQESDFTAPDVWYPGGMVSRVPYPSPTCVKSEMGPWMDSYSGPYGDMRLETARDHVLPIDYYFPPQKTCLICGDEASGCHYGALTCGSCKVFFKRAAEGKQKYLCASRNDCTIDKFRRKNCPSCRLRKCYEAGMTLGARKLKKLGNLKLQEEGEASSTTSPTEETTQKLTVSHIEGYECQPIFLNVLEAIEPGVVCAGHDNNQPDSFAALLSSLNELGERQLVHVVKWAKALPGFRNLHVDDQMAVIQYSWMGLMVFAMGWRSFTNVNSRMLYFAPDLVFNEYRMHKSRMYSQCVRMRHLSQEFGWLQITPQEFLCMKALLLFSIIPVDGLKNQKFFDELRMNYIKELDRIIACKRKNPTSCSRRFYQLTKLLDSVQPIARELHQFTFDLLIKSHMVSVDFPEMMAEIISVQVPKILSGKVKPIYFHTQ", "format": "cell-based", "design": "rows headed: IC50 (nM) Reporter; Fold induction, AR response reporter; agonistic activity on AR response reporter (w)", "details": "125 nM to 1000 nM, FIG. 3", "description": "The compounds were subjected to tests using an artificial AR response reporter system in a hormone refractory prostate cancer cell line. […] After two days of incubation, reporter activities were assayed."}, "androgen receptor": {"biological_target": "T2, androgen receptor (Homo sapiens, UniProt P10275, T878A)", "T2 sequence (P10275 1-920 T878A)": "T1 sequence (P10275 1-920) with T878A", "details": "10 uM, 24 hours, with or without 100 pM R1881, LNCaP"}, "[1]": {"biological_target": "T3, androgen receptor (AR) and RNA polymerase II (Pol II) (Homo sapiens, UniProt P10275, T878A)", "T3 sequence (P10275 1-920 T878A)": "T1 sequence (P10275 1-920) with T878A", "details": "10 uM, 6 hours, LNCaP", "experimental": "LNCaP (ATCC) cells were plated in full serum. On the day of the experiment, the plate was washed once with 1×PBS and 5% CSS was added for 3 days. […] Each of these compounds was added for 6 hours. In a fourth set of experiments, a control, no additional compound was added (−). 6 hours timepoint was run at 28 cycles."}},
  "note": "Residue numbers refer to the chain shown, from its start. “Also recorded” adds a separate entry of the source.",
  "data": [
    {"smiles": "CNC(=O)c1ccc(N2C(=S)N(c3ccc(C#N)c(C(F)(F)F)c3)C(=O)C23CCC3)cc1F", "note": "[NC53, N-methyl-4-[7-(4-cyano-3-trifluoromethylphenyl)-8-oxo-6-thioxo-5,7-diaza-spiro[3.4]oct-5-yl]-2-fluorobenzamide]", "values": [
      {"measurement": "luciferase activity in LNCaP-AR cells", "setting": "AR", "result": "acted to reduce luciferase activity"},
      {"measurement": "androgen receptor protein level", "setting": "androgen receptor", "result": "destabilized androgen receptor proteins; also recorded: androgen receptor protein is degraded"},
      {"measurement": "AR and Pol II recruitment to PSA enhancer and PSA promoter", "setting": "[1]", "result": "prevented androgen receptor (AR) recruitment and RNA polymerase II (Pol II) recruitment to PSA enhancer and to PSA promoter"}
    ]}
  ]
}
